This note sets out measurements from patent publication US20250319026A1, “VITAMIN COMPOSITION FOR ORAL ADMINISTRATION” (priority 2023, published 2025).

The data set in a line: Concentrations of B vitamins obtainable in solution using polysorbate 40 as a solvent. The data set is classed as physicochemical. The conditions noted are these: polysorbate 40 as a solvent in an amount of at least 1.8 wt. %; water. From the text:
One of the major disadvantages and drawbacks of the aforementioned prior art references is the absence of both pyridoxine, thiamine, cyanocobalamin in sufficiently high concentrations to ensure the supply of these vitamins to cover the necessary needs of the body.

For the substance cyanocobalamin, the “concentration obtainable in the solution” value is “at least 0.1 wt. %”.
